target: T1, human mGluR7 (Homo sapiens, UniProt Q14831); assay: mGluR7 assay: CRE-directed luciferase reporter gene assay, reduction of forskolin stimulated cAMP production; assay type: cell-based; details: stable CHO cell line expressing the CRE-luc reporter and human mGluR7 genes; decrease of forskolin stimulated luminescence; 10-point concentration-response, duplicate wells
T1 construct: expressed in transfected cells
Outline: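 Stable CHO cell line co-expressing human mGluR7 and a CRE-luciferase reporter; compounds preincubated 15 min at 37 °C, then forskolin added and incubated 5 h at 37 °C. 10-point half-log concentration-response in duplicate, normalised to forskolin-alone (max) and forskolin plus tool mGluR7 agonist (min) controls.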

T1 sequence (Q14831 35-915): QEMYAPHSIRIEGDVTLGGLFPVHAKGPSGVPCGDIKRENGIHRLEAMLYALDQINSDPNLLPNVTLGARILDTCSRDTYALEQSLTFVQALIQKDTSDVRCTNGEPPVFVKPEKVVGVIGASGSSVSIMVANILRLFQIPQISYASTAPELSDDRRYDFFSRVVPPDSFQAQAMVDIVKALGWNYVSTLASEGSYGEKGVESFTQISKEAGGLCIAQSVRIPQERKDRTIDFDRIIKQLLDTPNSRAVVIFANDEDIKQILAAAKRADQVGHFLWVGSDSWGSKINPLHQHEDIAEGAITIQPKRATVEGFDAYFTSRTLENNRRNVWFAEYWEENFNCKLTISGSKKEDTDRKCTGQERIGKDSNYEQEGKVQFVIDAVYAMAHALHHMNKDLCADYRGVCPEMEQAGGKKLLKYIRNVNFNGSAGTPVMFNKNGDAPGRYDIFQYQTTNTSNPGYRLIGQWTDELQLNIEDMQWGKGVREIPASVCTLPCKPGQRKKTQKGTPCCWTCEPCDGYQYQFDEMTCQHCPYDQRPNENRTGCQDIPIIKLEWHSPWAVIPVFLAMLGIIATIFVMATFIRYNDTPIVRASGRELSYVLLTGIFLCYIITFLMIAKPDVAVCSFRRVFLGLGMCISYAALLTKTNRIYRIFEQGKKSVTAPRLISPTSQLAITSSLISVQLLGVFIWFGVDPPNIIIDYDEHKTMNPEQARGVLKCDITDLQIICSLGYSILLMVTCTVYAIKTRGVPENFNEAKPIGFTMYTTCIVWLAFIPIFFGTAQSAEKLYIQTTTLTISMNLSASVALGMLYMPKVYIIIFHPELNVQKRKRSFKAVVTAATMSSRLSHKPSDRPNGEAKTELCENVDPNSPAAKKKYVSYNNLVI

With `CC(C)(C)OC(=O)N[C@H]1c2ccccc2C[C@@H]1NC(=O)C1(c2ccccc2)CC(=O)C1` [Example 123, tert-butyl N-[(1S,2S)-2-(3-oxo-1-phenylcyclobutaneamido)-2,3-dihydro-1H-inden-1-yl]carbamate] as the compound, how does the EC50 read?
The EC50 was 68 nM.

With `C[C@H](C(=O)N[C@H]1Cc2ccccc2[C@@H]1S(C)(=O)=O)c1ccc(F)cc1` [Example 132, (2S)-2-(4-fluorophenyl)-N-[(1S,2S)-1-methanesulfonyl-2,3-dihydro-1H-inden-2-yl]propanamide] as the compound, how does the EC50 read?
The EC50 was 5 nM.

With `C[C@H](C(=O)N[C@H]1Cc2ccccc2[C@@H]1Nc1ncccn1)c1ccc(F)cc1F` [Example 133, (2S)-2-(2,4-difluorophenyl)-N-[(1S,2S)-1-[(pyrimidin-2-yl)amino]-2,3-dihydro-1H-inden-2-yl]propanamide] as the compound, how does the EC50 read?
Its EC50 is 178 nM.

How did the EC50 turn out when `CCN[C@H]1c2ccccc2C[C@@H]1NC(=O)[C@@H](C)c1ccc(F)cc1` [Example 134, (2S)—N-[(1S,2S)-1-(ethylamino)-2,3-dihydro-1H-inden-2-yl]-2-(4-fluorophenyl)propanamide] was run?
Its EC50 is 86 nM.

With `CC(C(=O)N[C@H]1Cc2ccccc2[C@@H]1NC(=O)OC(C)(C)C)c1ccc(OC(F)F)cc1` (stereo partly drawn) [Example 151, tert-butyl N-[(1S,2S)-2-{2-[4-(difluoromethoxy)phenyl]propanamido}-2,3-dihydro-1H-inden-1-yl]carbamate] as the compound, how does the EC50 read?
Its EC50 is 441 nM.

`COc1cc(F)ccc1C(C)C(=O)N[C@H]1Cc2ccccc2[C@@H]1NC(=O)OC(C)(C)C` (stereo partly drawn) [Example 152, tert-butyl N-[(1S,2S)-2-[2-(4-fluoro-2-methoxyphenyl)propanamido]-2,3-dihydro-1H-inden-1-yl]carbamate] was tested. Which EC50 did it give?
Its EC50 is 183 nM.

How did the EC50 turn out when `CC(C(=O)N[C@H]1Cc2ccccc2[C@@H]1NC(=O)OC(C)(C)C)c1ccc(F)cc1Cl` (stereo partly drawn) [Example 153, tert-butyl N-[(1S,2S)-2-[2-(2-chloro-4-fluorophenyl)propanamido]-2,3-dihydro-1H-inden-1-yl]carbamate] was run?
Its EC50 is 63 nM.

`CC(C(=O)N[C@H]1Cc2ccccc2[C@@H]1NC(=O)OC(C)(C)C)c1ccc(F)cc1C(F)(F)F` (stereo partly drawn) [Example 154, tert-butyl N-[(1S,2S)-2-{2-[4-fluoro-2-(trifluoromethyl)phenyl]propanamido}-2,3-dihydro-1H-inden-1-yl]carbamate] was tested. Which EC50 did it give?
Its EC50 is 326 nM.

How did the EC50 turn out when `CN[C@@H]1c2ccccc2C[C@H]1NC(=O)[C@H](C)c1ccc(F)cc1` [Example 155, (2R)-2-(4-fluorophenyl)-N-[(1R,2R)-1-(methylamino)-2,3-dihydro-1H-inden-2-yl]propanamide] was run?
Its EC50 is 2220 nM.

How did the EC50 turn out when `CN[C@H]1c2ccccc2C[C@@H]1NC(=O)[C@H](C)c1ccc(F)cc1` [Example 157, (2R)-2-(4-fluorophenyl)-N-[(1S,2S)-1-(methylamino)-2,3-dihydro-1H-inden-2-yl]propanamide] was run?
The EC50 was 1380 nM.

For `CN[C@@H]1c2ccccc2C[C@@H]1NC(=O)[C@@H](C)c1ccc(F)cc1` [Example 160, (2S)-2-(4-fluorophenyl)-N-[(1R,2S)-1-(methylamino)-2,3-dihydro-1H-inden-2-yl]propanamide], which EC50 is on record?
Its EC50 is 5940 nM.
